These results are taken from patent publication US12295997B2, “Prostate neoantigens and their uses” (Janssen Biotech, Inc., priority 2020, dated 2025).

This assay deals with CD8+ and CD4+ T cells (autologous CD3+ Pan-T cells isolated from human normal PBMCs). The assay can be described thus: Exogenous autologous normal donor restimulation assay (15-mer overlapping peptide pools on CD1c+ dendritic cells, TNFα/IFNγ flow cytometry). To be noted: 15-mer overlapping peptide pool; for Maximum Fold Change Over Background CD4+ cells / Maximum Fold Change Over Background CD8+ cells / Maximum Frequency of TNFα/IFNγ Double Positive CD4+ T cells / Maximum Frequency of TNFα/IFNγ Double Positive CD8+ T cells: Table 25; for Maximum Fold Change Over Background CD4+ cells: TNFα+IFNγ+ CD4+ T cells; for Maximum Fold Change Over Background CD4+ cells / Maximum Fold Change Over Background CD8+ cells: highest fold change over negative control across normal donors; for Maximum Fold Change Over Background CD8+ cells: TNFα+IFNγ+ CD8+ T cells; for Maximum Frequency of TNFα/IFNγ Double Positive CD4+ T cells / Maximum Frequency of TNFα/IFNγ Double Positive CD8+ T cells: highest frequency across normal donors; for Max. Fold Change over background CD4+ TNFαINFγ double positive DP / Max. Fold Change over background CD8+ TNFαINFγ double positive DP / Max. Frequency of CD4+ TNFαINFγ DP / Max. Frequency of CD8+ TNFαINFγ DP: Table 28, additional neoantigens, highest across normal donors. It is filed as cell-based. Here is the method:
CD1c+ Dendritic Cells (DC) isolated from human normal PBMCs were thawed using media (IMDM (Gibco) supplemented with glutamine, HEPES, 5% human serum (Sigma), and 1× Pen-Strep). DC cells were resuspended in media supplemented with IL-4 (Peprotech, 80 ng/mL) and GM-CSF (Gibco, 80 ng/mL), plated in 6 well microplates, and rested overnight at 37° C. (5% CO2). The following day, DC cells were counted and plated in a 96 well round bottom microplate at a concentration of 30,000 viable cells per well. Lyophilized peptides (15-mer overlapping peptides) were solubilized in 100% DMSO and pooled by neoantigen to between 5 mg/mL and 20 mg/mL. Neoantigen peptides pools were added to DCs for a final concentration of […] and rested for 2 hours at 37° C. (5% CO2). CEF Peptide Pool “Plus” (Cellular Technologies, Ltd.) was utilized as a positive control and DMSO at the same final concentration as the experimental peptides was utilized as a negative control. After 2 hours, DC cells were irradiated with 50 gray of ionizing radiation. Autologous CD3+ Pan-T cells isolated from human normal PBMCs were thawed using media. Following irradiation, autologous Pan-T cells were added to the irradiated DCs at 300,000 viable cells per well. Human IL-15 (Peprotech) was added to all wells at final concentration of 10 ng/mL.
Plates were incubated at 37° C. (5% CO2) for a total of 12 days. Media was refreshed every 2-3 days with IL-15 (10 ng/mL final concentration) and IL-2 (R&D systems, 10 IU/mL final concentration). On day 11 cells were re-stimulated with identical experimental peptide pools or controls, at same concentration as peptide stimulation on Day 1. Protein Inhibitor Cocktail (eBioscience) was added to every well and plate was incubated overnight at 37° C. (5% CO2).
On day 12, cells were stained for intracellular flow cytometry analysis. The cells were washed with PBS and stained with Live/Dead Fixable Aqua Dead Cell stain (Thermo-Fisher). Following the live/dead stain, cells were blocked using Biotin-Free Fc Receptor Blocker (Accurate Chemical & Scientific Corp). Extracellular cellular flow panel (1 μL/antibody per well in 50 μL) consisted of CD3 PerCP-Cy5.5 (Biolegend), CD4 BV421 (Biolegend), and CD8 APC-Cy7 (Biolegend). After extracellular staining, cells were fixed using Foxp3/fTranscription Factor Staining Buffer Set (eBioscience) and stained for intracellular proteins (1:50 dilution) using TNFα FITC (R&D Systems) and IFNγ BV785 (Biolegend). Cells were washed and resuspended in stain buffer and analyzed using a BD Celesta flow cytometer.
Flow cytometry cell staining analysis was completed using FlowJo v10. Cells were gated on live, singlet, CD3+ cells. The CD8+ and CD4+ T cells were analyzed for TNFα/IFNγ expression and the frequency of double positive TNFα/IFNγ CD8+ and the frequency of double positive TNFα/IFNγ CD4+ T cells were recorded. Responses were assessed to be positive when the frequency of double positive TNFα/IFNγ CD8+ or TNFα/IFNγ CD4+ T cells due to stimulation with an experimental peptide pool was increased greater than or equal to 3-fold over the DMSO only negative control for that donor and at least 0.01%.
Overlapping 15-mer peptides were designed to span each neoantigen incorporated into NeoGAd20 and NeoMVA to assess their ability to activate T cells using the exogenous autologous normal donor restimulation assay described in Example 1 as pools using TNFα and IFNγ production by CD8^+ and CD4^+ T cells as a readout.
Immunogenicity of various additional identified neoantigens was assessed. Overlapping 15-mer peptides were designed to span each neoantigen similarly to what was done in Example 11 to assess their ability to activate T cells using the exogenous autologous normal donor restimulation assay described in Example 1 as pools using TNFα and IFNγ production by CD8^+ and CD4^+ T cells as a readout.

For the substance “TGGKSTCSAPGPQSLPSTPFSTYPQWVILITEL (listed as Homo sapiens) [AS57, KLK3 alternative splicing]”, the “Maximum Fold Change Over Background CD4+ cells” value turned out to be 11.00, the “Maximum Fold Change Over Background CD8+ cells” value amounted to 4.67, the “Maximum Frequency of TNFα/IFNγ Double Positive CD4+ T cells” value amounted to 0.110 and the “Maximum Frequency of TNFα/IFNγ Double Positive CD8+ T cells” value was 0.056.
Turning to “VETLENANSFSSGIQPLLCSLIGLENPT (listed as Homo sapiens) [AS58, CREB3L1 alternative splicing]”, the “Max. Fold Change over background CD4+ TNFαINFγ double positive DP” value is recorded as 6.27, the “Max. Fold Change over background CD8+ TNFαINFγ double positive DP” value worked out at 4.54, the “Max. Frequency of CD4+ TNFαINFγ DP” value was found to be 0.24 and the “Max. Frequency of CD8+ TNFαINFγ DP” value was found to be 0.6.
Taken in the same sequence, the figures for “KVLNEIDAVVTVPPSLSTSQIPQGCCIIL (listed as Homo sapiens) [AS20, PFKFB4 alternative splicing]” were 1.36, 3.81, 0.05 and 0.12.
“FVQGKDWGVKKFIRRDF (listed as Homo sapiens) [Neoantigen M12, SPOP F133V]”: the “Maximum Fold Change Over Background CD4+ cells” value stood at 8.94, the “Maximum Fold Change Over Background CD8+ cells” value came to 6.67, the “Maximum Frequency of TNFα/IFNγ Double Positive CD4+ T cells” value stood at 0.05 and the “Maximum Frequency of TNFα/IFNγ Double Positive CD8+ T cells” value was 0.12.
As for “ENSGNASRWLHVPSSSDDWLGWKKSSAITSNS (listed as Homo sapiens) [AS50, LRIF1 alternative splicing]”, the “Max. Fold Change over background CD4+ TNFαINFγ double positive DP” value came to 17.22, the “Max. Fold Change over background CD8+ TNFαINFγ double positive DP” value worked out at 1.6, the “Max. Frequency of CD4+ TNFαINFγ DP” value turned out to be 0.07 and the “Max. Frequency of CD8+ TNFαINFγ DP” value turned out to be 0.12.
For the substance “P27 (LHPQRETFTPRWSGANYWKLAFPVGAEGTFPAAATQRGVVRPA; listed as Homo sapiens) [Neoantigen P27]”, the “Max. Fold Change over background CD4+ TNFαINFγ double positive DP” value worked out at 45.38, the “Max. Fold Change over background CD8+ TNFαINFγ double positive DP” value is 7.87, the “Max. Frequency of CD4+ TNFαINFγ DP” value came out at 0.05 and the “Max. Frequency of CD8+ TNFαINFγ DP” value was determined as 0.59.
Turning to “TEISCCTLSSEENEYLPRPEWQLQ (listed as Homo sapiens) [FUS3, MSMB->NCOA4 gene fusion]”, the “Maximum Fold Change Over Background CD4+ cells” value was 2.75, the “Maximum Fold Change Over Background CD8+ cells” value worked out at 3.94, the “Maximum Frequency of TNFα/IFNγ Double Positive CD4+ T cells” value was found to be 0.033 and the “Maximum Frequency of TNFα/IFNγ Double Positive CD8+ T cells” value amounted to 0.063.
In the case of “PVPTATPGVRSVTSPQGLGLFLKFI (listed as Homo sapiens) [AS9, CACNA1D alternative splicing]”, the “Max. Fold Change over background CD4+ TNFαINFγ double positive DP” value is 4.18, the “Max. Fold Change over background CD8+ TNFαINFγ double positive DP” value worked out at 3.81, the “Max. Frequency of CD4+ TNFαINFγ DP” value is 0.16 and the “Max. Frequency of CD8+ TNFαINFγ DP” value is 0.12.
“QPDSFAALHSSLNELGE (listed as Homo sapiens) [Neoantigen M86, AR L702H]”: the “Maximum Fold Change Over Background CD4+ cells” value was found to be 6.18, the “Maximum Fold Change Over Background CD8+ cells” value is reported as 4.22, the “Maximum Frequency of TNFα/IFNγ Double Positive CD4+ T cells” value was found to be 0.05 and the “Maximum Frequency of TNFα/IFNγ Double Positive CD8+ T cells” value is given as 0.08.
Taken in the same sequence, the figures for “RTALTHNQDFSIYRLCCKRGSLCHASQARSPAFPKPVRPLPAPITRITPQLGGQSDSSQPLLTTGRPQGWQDQALRHTQQASPASCATITIPIHSAALGDHSGDPGPAWDTCPPLPLTTLIPRAPPPYGDSTARSWPSRCGPLG [MS3]” were 13.61, 36.15, 0.09 and 0.47.
In the case of “P97 (GYLRMQGLMAQRLLLR; listed as Homo sapiens) [Neoantigen P97]”, the “Max. Fold Change over background CD4+ TNFαINFγ double positive DP” value is 3.14, the “Max. Fold Change over background CD8+ TNFαINFγ double positive DP” value came to 7.47, the “Max. Frequency of CD4+ TNFαINFγ DP” value is 0.12 and the “Max. Frequency of CD8+ TNFαINFγ DP” value worked out at 1.11.
In the same order, the values of MS2 (TDIVKQSV; listed as Homo sapiens) are 15.12, 36.92, 0.1 and 0.48.
Regarding “TEYNQKLQVNQFSESK (listed as Homo sapiens) [FUS2, ARHGEF38->ARHGEF38-IT1 gene fusion]”, the “Maximum Fold Change Over Background CD4+ cells” value is on record as 2.14, the “Maximum Fold Change Over Background CD8+ cells” value stood at 3.13, the “Maximum Frequency of TNFα/IFNγ Double Positive CD4+ T cells” value is reported as 0.03 and the “Maximum Frequency of TNFα/IFNγ Double Positive CD8+ T cells” value was 0.05.
As for “WCPLDLRLGSTGCLTCRHHQTSHE (listed as Homo sapiens) [AS4, NCAPD3 alternative splicing]”, the “Max. Fold Change over background CD4+ TNFαINFγ double positive DP” value is on record as 37.38, the “Max. Fold Change over background CD8+ TNFαINFγ double positive DP” value was 5.4, the “Max. Frequency of CD4+ TNFαINFγ DP” value was 1.43 and the “Max. Frequency of CD8+ TNFαINFγ DP” value is on record as 0.17.
Taken in the same sequence, the figures for MS7 (KKDLELIL; listed as Homo sapiens) were 10.52, 6.67, 0.09 and 0.12.
Take “FKKFDGPCGERGGGRTARALWARGDSVLTPALDPQTPVRAPSLTRAAAAV (listed as Homo sapiens) [AS47, AGRN alternative splicing]”: the “Maximum Fold Change Over Background CD4+ cells” value is 2.58, the “Maximum Fold Change Over Background CD8+ cells” value amounted to 4.80, the “Maximum Frequency of TNFα/IFNγ Double Positive CD4+ T cells” value worked out at 0.031 and the “Maximum Frequency of TNFα/IFNγ Double Positive CD8+ T cells” value is on record as 0.240.
Turning to “PEPRRLSPGEPRGRPRKGWGIWGLCGARVGPKAWR (listed as Homo sapiens) [AS42, SLC39A4 alternative splicing]”, the “Max. Fold Change over background CD4+ TNFαINFγ double positive DP” value came out at 24.58, the “Max. Fold Change over background CD8+ TNFαINFγ double positive DP” value is listed as 4.65, the “Max. Frequency of CD4+ TNFαINFγ DP” value was 0.59 and the “Max. Frequency of CD8+ TNFαINFγ DP” value worked out at 0.69.
As for “KEQILAVASLVSSQSIHPSWGQSPLSRI (listed as Homo sapiens) [FUS9, AP5S1->MAVS gene fusion]”, the “Max. Fold Change over background CD4+ TNFαINFγ double positive DP” value was 203.97, the “Max. Fold Change over background CD8+ TNFαINFγ double positive DP” value amounted to 1.82, the “Max. Frequency of CD4+ TNFαINFγ DP” value stood at 0.77 and the “Max. Frequency of CD8+ TNFαINFγ DP” value was 0.07.
Consider “TMPAILKLQKNCLLSL (listed as Homo sapiens) [MS8]”, for which the “Maximum Fold Change Over Background CD4+ cells” value turned out to be 15.60, the “Maximum Fold Change Over Background CD8+ cells” value is reported as 4.44, the “Maximum Frequency of TNFα/IFNγ Double Positive CD4+ T cells” value was found to be 0.40 and the “Maximum Frequency of TNFα/IFNγ Double Positive CD8+ T cells” value was found to be 0.14.
On to “QWQHYHRSGEAAGTPLWRPTRN (listed as Homo sapiens) [AS19, NWD1 alternative splicing]”, for which the “Maximum Fold Change Over Background CD4+ cells” value is listed as 2.59, the “Maximum Fold Change Over Background CD8+ cells” value turned out to be 5.87, the “Maximum Frequency of TNFα/IFNγ Double Positive CD4+ T cells” value turned out to be 0.1 and the “Maximum Frequency of TNFα/IFNγ Double Positive CD8+ T cells” value came to 0.63.
